# Like-named read-outs stand apart in the source and are kept apart here.
# Columns and labels:
# [1] = tested on: Relapsing-remitting multiple sclerosis patients (FORTE cohort); experiment: Annualized relapse rate in FORTE cohort patients genetically predicted as responders/non-responders by predictive models; format: in vivo, human
# Protocol: Relapsing-remitting multiple sclerosis patients were treated with either 20 mg GA or 40 mg GA daily in the Teva FORTE clinical trial (www.medicalnewstoday.com/articles/48863.php). Blood samples were drawn from each subject that signed an informed consent for the pharmacogenetic study and analyzed as described below.
# A clinical relapse was defined as the appearance of one or more new neurological abnormalities or the reappearance of one or more previously observed neurological abnormalities.
# To find genotypic profiles that discriminate responders (R) from the non-responders (NR) to the treatment, we used a backward stepwise logistic regression procedure on the SNPs that emerged significant using the narrow definition (e.g., at p-value=10^−4 or lower). Other models were generated based on combinatorial optimization heuristics. Once a pool of models was created, selected models were chosen based on the low value of Akaike's Information Criterion (AIC) and low number SNPs in the model. The model chosen in the previous step went through “Leave one out” cross validation, searching for high values of the Area Under the ROC curve.
# The response probability p(Response) of a specific patient was calculated according to the tables and formulas indicated for each specific model.
# Patients with p(Response) above 0.5 were predicted to be responders and patients with p(Response) below 0.5 were predicted to be non-responders. When the model was retrospectively applied to the full cohort of 599 FORTE patients, we observed that the annualized relapse rate (ARR) in patients genetically predicted as responders was reduced by 62% compared to all patients, and by 76% compared to non-responders (p<0.0001). When we applied the model retrospectively to a second independent cohort of 79 patients, the model could identify subpopulations genetically predicted to be responders and non-responders with respectively lower (for responders) and higher (for non-responders) relapse rate. In the placebo-treated arm no specific pattern could be observed.
# The models were retrospectively applied to the full cohort of 599 FORTE patients using different predictive thresholds. The ratios between the Annualized Relapse Rate (ARR) of genetically predicted responder patients (R) compared to the average ARR in genetically predicted non-responder patients (NR), and the ratios between the average ARE observed in the genetically predicted responder patients (R) compared to average ARR in the whole study population (All), according to each predictive threshold or two predictive thresholds, are presented in table 37. […]
# [2] = tested on: multiple sclerosis patients (European/Canadian study); experiment: Annualized relapse rate in European/Canadian study patients genetically predicted as responders/non-responders by FM1 model; format: in vivo, human; settings: 0.8 threshold
# Source text: In comparison, the average ARR in either placebo-treated patients or non treated patients (from European/Canadian study and CORAL, respectively) genetically predicted as responders was −7% and 26% lower, respectively, than in patients predicted as Non-Responders and 10% and 11% lower than in the whole study population. The reduction in average ARR by GA over placebo-treated patients in the responders population in the European/Canadian study was 79%.
# [3] = tested on: RRMS subjects; settings: cited from earlier work
# [4] = tested on: RRMS patients; settings: cited from earlier work
# [5] = FM1 model, 0.8 threshold, FORTE
# [6] = model GM2068, FORTE cohort, whole study population (All)
# [7] = model GM2090, FORTE cohort, whole study population (All)
# [8] = model GM2094, FORTE cohort, whole study population (All)
# [9] = model GM2277, FORTE cohort, whole study population (All)
substance,measurement,setting,value
Glatiramer acetate [GA],average ARR in GA-treated predicted responders lower than in patients predicted as non-responders,[1]; [5],76%
same,average ARR in GA-treated predicted responders lower than in the whole study population,[1]; [5],64%
same,reduction of annualized relapse rate (ARR) in genetically predicted responders compared to all patients,"[1]; FM1 model, p(Response) threshold 0.5, full cohort of 599 FORTE patients",62%
same,reduction of annualized relapse rate (ARR) in genetically predicted responders compared to non-responders,"[1]; FM1 model, p(Response) threshold 0.5, full cohort of 599 FORTE patients, p<0.0001",76%
same,ARR Vs. all,"[1]; model FM1, response prediction All",100%
same,ARR,"[1]; model FM1, response prediction All (whole FORTE study population, threshold NA)",0.241
same,ARR Vs. all,"[1]; model FM1a, response prediction All",100%
same,ARR,"[1]; model FM1a, response prediction All (whole FORTE study population, threshold NA)",0.245
same,ARR Vs. all,"[1]; model FM2, response prediction All",100%
same,ARR,"[1]; model FM2, response prediction All (whole FORTE study population, threshold NA)",0.245
same,ARR Vs. all,"[1]; model GM1003, response prediction All",100%
same,ARR,"[1]; model GM1003, response prediction All (whole FORTE study population, threshold NA)",0.26
same,ARR Vs. all,"[1]; model GM1006, whole study population (All)",100%
same,ARR,"[1]; model GM1006, whole study population (All), FORTE cohort, 599 patients",0.253
same,ARR Vs. all,"[1]; model GM1011, whole study population (All)",100%
same,ARR,"[1]; model GM1011, whole study population (All), FORTE cohort, 599 patients",0.256
same,ARR Vs. all,"[1]; model GM1012, whole study population (All)",100%
same,ARR,"[1]; model GM1012, whole study population (All), FORTE cohort, 599 patients",0.251
same,ARR Vs. all,"[1]; model GM2004, whole study population (All)",100%
same,ARR,"[1]; model GM2004, whole study population (All), FORTE cohort, 599 patients",0.255
same,ARR,[1]; [6],0.256
same,ARR Vs. all,[1]; [6],100%
same,ARR,[1]; [7],0.254
same,ARR Vs. all,[1]; [7],100%
same,ARR,[1]; [8],0.251
same,ARR Vs. all,[1]; [8],100%
same,ARR,[1]; [9],0.258
same,ARR Vs. all,[1]; [9],100%
same,ARR,"[1]; model GM2338, response prediction All (whole study population), threshold NA, FORTE cohort",0.251
same,ARR Vs. all,"[1]; model GM2338, response prediction All, threshold NA, FORTE cohort",100%
same,ARR,"[1]; model GM3102, response prediction All (whole study population), threshold NA, FORTE cohort",0.263
same,ARR Vs. all,"[1]; model GM3102, response prediction All, threshold NA, FORTE cohort",100%
same,ARR,"[1]; model GM3150, response prediction All (whole study population), threshold NA, FORTE cohort",0.26
same,ARR Vs. all,"[1]; model GM3150, response prediction All, threshold NA, FORTE cohort",100%
same,ARR,"[1]; model GM3332, response prediction All (whole study population), threshold NA, FORTE cohort",0.262
same,ARR Vs. all,"[1]; model GM3332, response prediction All, threshold NA, FORTE cohort",100%
same,average ARR in GA-treated predicted responders lower than in patients predicted as non-responders,[2],81%
same,average ARR in GA-treated predicted responders lower than in the whole study population,[2],77%
same,reduction in average ARR by GA over placebo-treated patients in the responders population,[2],79%
same,tolerability,[3]; daily standard dose of 20 mg,generally well tolerated
same,reduction of relapse rate compared with placebo,"[3]; largest controlled study, GA 20 mg, RRMS",32%
same,relapse rate,"[3]; largest controlled study, under GA 20 mg (1.98 under placebo)",1.34
same,median cumulative number of Gd-enhancing lesions,"[3]; over 9 months of treatment, 20 mg group (17 under placebo)",11 lesions
same,response rate,[4]; DRB1*1501 carriers,81.8%
same,response rate,[4]; non-carriers of DRB1*1501,39.4%
same,response rate,[4]; whole study population,50%

# Reference: US9499868B2, “Determination of single nucleotide polymorphisms useful to predict response for glatiramer acetate” (TEVA PHARMACEUTICAL INDUSTRIES, LTD., priority 2011, dated 2016)
